{
  "source": "patent US10945971B2",
  "about": "“Sphingosine kinase type 1 inhibitors and uses thereof” (Enzo Therapeutics, Inc., priority 2008, dated 2021)",
  "key": {"[1]": {"system": "U118 cells", "experiment": "Proliferation of U118 glioblastoma cells", "assay_type": "cell-based, human", "description": "(§1) Cells were plated at 10,000 cells/well in 48-well plates and allowed to attach for 24 h. Cell proliferation was measured at the indicated times with WST-1 and absorbance was measured in a plate reader at 450 nm with background subtraction at 630 nm. Cell death was detected by trypan blue exclusion assays in which the percent of blue dye incorporating cells were determined using a light microscope and a hemacytometer as described (Yacoub et al. Mol Cancer Ther 7:314-329, 2008). Apoptotic cell death was measured by staining cell nuclei with the Hoechst dye bisbenzimide and apoptotic cells were identified by condensed, fragmented nuclear regions as described previously (Sankala et al. Cancer Res 67:10466-10474, 2007). A minimum of 300 cells was scored."}, "[2]": {"system": "intracranial LN229-H2B-EGFP tumors", "experiment": "Intracranial LN229 xenograft tumors in nu/nu mice", "assay_type": "in vivo", "description": "Adult female NCI nu/nu mice were anesthetized and LN229-H2B-EGFP cells (2.5×10^4 in 1 μl PBS) were stereotactically implanted in the putamen region (1 mm anterior and 2.5 mm lateral to the Bregma at the depth of 3.5 mm at a rate of 0.1 μl/min). Mice were monitored for recovery until complete wakening. 20 days after implantation, mice were injected i.p. with SK1-I (20 mg/kg in PBS) every other day. Mice were observed daily following tumor implantation and were euthanized on reaching a moribund state.\nExperiments were repeated at least three times with consistent results. For each experiment, data from triplicate samples were expressed as means±S.D. Statistics were performed by single factor ANOVA, and p<0.05 was considered significant. The Kaplan-Meier estimator was used to generate the survival curves and to estimate the median survival values. Differences between survival curves were compared using a log-rank test."}, "[3]": {"system": "ERK1/2", "experiment": "Western blotting of ERK1/2 activation, U373 cells", "assay_type": "cell-based, human", "description": "(§2) Cells were scraped in buffer containing 20 mM Tris-HCl, pH 7.5, 50 mM NaCl, 50 mM NaF, 30 mM Na4P2O7, 20 mM 2-glycerophosphate, 1 mM Na3VO4, 5 mM EDTA, 2 mM EGTA, 0.5% SDS and protease inhibitor cocktail (1:200 dilution) and probe-sonicated. Equal amounts of protein determined with bicinchoninic acid (Pierce, Rockford, Ill.), were resolved by SDS-PAGE and transferred to nitrocellulose membranes. Blots were blocked with 5% non-fat dry milk in Tris-buffered saline containing 0.1% […] (TBST) for 1 h at room temperature, and then incubated with primary antibodies (1:3,000 in 1% BSA) overnight, followed by the appropriate HRP-conjugated secondary antibodies (1:40,000 in 1% BSA). Immunocomplexes were visualized by enhanced chemiluminescence (Pierce)."}, "[4]": {"system": "ERK1/2", "experiment": "Western blotting of ERK1/2 phosphorylation, LN229 cells", "assay_type": "cell-based, human", "details": "LN229, serum, LPA, EGF, short-term", "description": "as §2"}, "[5]": {"system": "EGFR, Gab1", "experiment": "EGF-induced tyrosine phosphorylation of EGFR and Gab1", "assay_type": "cell-based", "description": "as §2"}, "[6]": {"system": "Akt", "experiment": "Western blotting of Akt phosphorylation, U373 cells", "assay_type": "cell-based, human", "description": "as §2"}, "[7]": {"system": "JNK", "experiment": "JNK pathway and p38 MAPK activation, LN229 cells", "assay_type": "cell-based, human", "description": "as §2"}, "[8]": {"system": "S1P, sphingosine and ceramide levels", "experiment": "Sphingolipid metabolite levels by LC-ESI-MS/MS after SK1-I", "assay_type": "cell-based", "description": "Lipids were extracted and phosphorylated and unphosphorylated sphingoid bases, individual ceramide acyl chain species, as well as SK1-I and its metabolites were quantified by liquid chromatography, electrospray ionization-tandem mass spectrometry (LC-ESI-MS/MS) as described previously (Merrill et al. Methods 36:207-224, 2005)."}, "[9]": {"system": "human leukemic cell lines", "details": "U.S. Ser. No. 12/387,228; cited from earlier work"}, "[10]": {"system": "LN229 cells", "experiment": "Cell proliferation (WST-1), LN229 cells", "assay_type": "cell-based, human", "description": "(§3) U373-MG and LN229 human glioblastoma cells (ATTC, Manassas, Va.) were cultured in DMEM supplemented with 5% FCS. Primary human non-established glioblastoma GBM6 cells were kindly provided by Dr. C. David James and were passaged as tumors in nude mice and subcultured for 1 week following isolation from tumors in media containing 2% FCS to prevent growth of contaminating rodent fibroblasts and then cultured in 5% FCS as described (Yacoub et al., Mol Cancer Ther 7:314-329, 2008). LN229 cells were transfected with H2B-EGFP plasmid and stable colonies were isolated following selection with 1 mg/ml of G418. LN229-H2B-EGFP cells were passaged as tumors as described above.\nas §1"}, "[11]": {"system": "p70S6K", "experiment": "Western blotting of p70S6K phosphorylation, LN229 cells", "assay_type": "cell-based, human", "description": "as §2"}, "[12]": {"system": "Akt", "experiment": "Western blotting of Akt phosphorylation, GBM6 cells", "assay_type": "cell-based, human", "details": "GBM6, shortly following treatment", "description": "as §2"}, "[13]": {"target": "Akt (Homo sapiens, UniProt P31749)", "sequence (P31749 whole entry)": "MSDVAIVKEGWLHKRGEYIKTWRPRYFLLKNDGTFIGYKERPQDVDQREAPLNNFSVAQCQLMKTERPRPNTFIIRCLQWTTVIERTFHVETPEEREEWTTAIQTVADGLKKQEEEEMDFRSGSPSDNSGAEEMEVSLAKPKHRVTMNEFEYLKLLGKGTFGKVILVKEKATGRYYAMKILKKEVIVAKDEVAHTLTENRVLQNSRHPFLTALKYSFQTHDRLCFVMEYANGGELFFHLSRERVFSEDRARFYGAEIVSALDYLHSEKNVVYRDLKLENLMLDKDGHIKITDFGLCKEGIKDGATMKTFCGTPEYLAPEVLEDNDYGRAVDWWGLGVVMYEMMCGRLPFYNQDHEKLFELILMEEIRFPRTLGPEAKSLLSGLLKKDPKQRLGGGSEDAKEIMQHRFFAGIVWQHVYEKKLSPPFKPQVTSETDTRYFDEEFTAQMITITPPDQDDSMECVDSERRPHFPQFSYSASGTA", "details": "Paugh et al. Blood 2008; cited from earlier work"}, "[14]": {"system": "GBM6 glioblastoma cells", "experiment": "Cell proliferation (WST-1), primary non-established GBM6 cells", "assay_type": "cell-based, human", "description": "as §3\nas §1, with “A minimum of 300 cells was scored.” left out"}, "[15]": {"system": "AML xenograft tumors", "details": "U.S. Ser. No. 12/387,228; cited from earlier work"}, "[16]": {"system": "U373 cells", "experiment": "Cell proliferation (WST-1), U373 cells", "assay_type": "cell-based, human", "description": "as §3, §1"}},
  "data": [
    {"smiles": "CCCCCc1ccc(/C=C/[C@H](O)[C@@H](CO)NC)cc1", "note": "[SK1-I, (2R,3S,4E)-N-methyl-5-(4′-pentylphenyl)-2-aminopent-4-ene-1,3-diol]", "values": [
      {"measurement": "proliferation", "setting": "[1]", "result": "suppress proliferation"},
      {"measurement": "symptoms of tumor burden", "setting": "[2]; 20 mg/kg i.p. every other day from day 20, when vehicle mice were moribund (day 43-49)", "result": "None of the SK1-I treated mice showed any symptoms"},
      {"measurement": "tumors on T2W MRI", "setting": "[2]; day 48", "result": "no tumors were evident"},
      {"measurement": "tumor on gadolinium enhanced MRI", "setting": "[2]; day 48, site of injection", "result": "small tumor"},
      {"measurement": "Kaplan-Meier survival", "setting": "[2]; i.p. administration, vs vehicle control", "result": "significant survival benefit"},
      {"measurement": "invading GFP-labeled LN229 cells in intracranial tumor sections", "setting": "[2]; vs vehicle treated animals", "result": "significantly fewer invading cells"},
      {"measurement": "EGF- and serum-induced ERK1/2 activation", "setting": "[3]", "result": "did not reduce"},
      {"measurement": "stimulated ERK1/2 phosphorylation at Thr202/Tyr204", "setting": "[4]", "result": "did not significantly affect"},
      {"measurement": "EGF-induced tyrosine phosphorylation of EGFR or of Gab1", "setting": "[5]", "result": "did not affect"},
      {"measurement": "basal Akt phosphorylation at Thr308 and Ser473", "setting": "[6]; U373", "result": "reduced"},
      {"measurement": "time to significant inhibitory effect on Akt phosphorylation", "setting": "[6]; U373", "result": "≤ 20", "unit": "min"},
      {"measurement": "duration of inhibitory effect on Akt phosphorylation", "setting": "[6]; U373, data not shown", "result": "at least 24 hours"},
      {"measurement": "total Akt levels", "setting": "[6]; after treatment with SK1-I", "result": "no significant reductions"},
      {"measurement": "activation of JNK", "setting": "[7]; LN229", "result": "delayed activation of JNK"},
      {"measurement": "phosphorylation of c-Jun (Ser63/73) and ATF-2 (Thr71)", "setting": "[7]; LN229, after addition of SK1-I", "result": "enhanced phosphorylation"},
      {"measurement": "p38 MAPK", "setting": "[7]; LN229, data not shown", "result": "without affecting"},
      {"measurement": "ceramide levels, particularly C16-ceramide", "setting": "[8]; after 24 h of treatment", "result": "increased markedly"},
      {"measurement": "S1P levels", "setting": "[8]; within 20 min after addition", "result": "significant reduction"},
      {"measurement": "ceramide levels", "setting": "[8]; within 1 h after addition", "result": "without major changes"},
      {"measurement": "decrease in S1P levels", "setting": "[8]; within 1 h after addition", "result": 70, "unit": "%"},
      {"measurement": "sphingosine levels", "setting": "[8]; within 1 h after addition", "result": "increase"},
      {"measurement": "apoptosis", "setting": "[9]", "result": "markedly induced apoptosis"},
      {"measurement": "cell growth", "setting": "[10]; LN229, 10 μM, absence of serum", "result": "strongly inhibited growth"},
      {"measurement": "cell numbers", "setting": "[10]; LN229, 10 μM, presence of serum, within 2-4 days", "result": "severe reductions in cell numbers"},
      {"measurement": "concentration at which a significant growth inhibitory effect was observed", "setting": "[10]; LN229 cells", "result": 3, "unit": "µM"},
      {"measurement": "activation of p70S6K (Thr389)", "setting": "[11]", "result": "reduced activation"},
      {"measurement": "basal and serum- and EGF-stimulated phosphorylation of Akt", "setting": "[12]", "result": "reduced"},
      {"measurement": "Akt activity in an in vitro kinase assay", "setting": "[13]", "result": "did not inhibit Akt activity"},
      {"measurement": "cell growth", "setting": "[14]; GBM6, 10 μM, presence of serum", "result": "markedly reduced growth"},
      {"measurement": "lowest concentration with significant growth inhibition", "setting": "[14]; GBM6, absence of serum", "result": 1, "unit": "µM"},
      {"measurement": "tumor growth", "setting": "[15]", "result": "inhibited growth"},
      {"measurement": "cell growth", "setting": "[16]; U373, 10 μM, absence of serum", "result": "strongly inhibited growth"},
      {"measurement": "cell numbers", "setting": "[16]; U373, 10 μM, presence of serum, within 2-4 days", "result": "severe reductions in cell numbers"},
      {"measurement": "concentration at which a significant growth inhibitory effect was observed", "setting": "[16]; U373 cells", "result": 3, "unit": "µM"}
    ]}
  ]
}
